Legend:
[1] = Radiation dosimetry calculation (OLINDA), extrapolated to humans (male); set-up: species or system human
Description: (§1) Internal dosimetry estimates were calculated using the organ level internal dose assessment (OLINDA) software v.2.0.^37 These estimates were performed for the mouse using the 25 g MOBY phantom,^38 for humans using the NURBS model for the adult male,^39 and for the tumors using the previously reported unit density sphere model.^40 All the phantoms and the sphere model are available in OLINDA and require the input of the total number of decays normalized by injected activity in units of MBq×h/MBq for each of the source organ/tumor.
Extrapolation of the mice biodistribution data to humans was performed using the method proposed by Kirschner et al.^41 and shown in the following equation: […]
Where morgan is the mass of the organ and M represents the total body mass. The subscripts indicate whether the values correspond to human or mouse. Masses for the organs and total body weight were taken from the simulated masses of the phantoms in OLINDA. […] The % ID/g of the blood was assumed to be the one for the heart contents of the phantom. This value was also used to calculate the bone marrow uptake based on the method described by Wessels et al.^42 in which we assumed a hematocrit fraction of 0.40 based on the patient values shown on that study. At the end, red marrow values used the blood measurements scaled by a factor of 0.32. In the human case, the fat, muscle, and seminal vesicles that are present in the biodistribution data are not modelled in the phantom so the numbers of decays present in these regions were included in the remainder of the body. The data was again fitted as for the mouse case and the values for the total number of decays in units of MBq×h/MBq were inputted in OLINDA.

[2] = Radiation dosimetry calculation (OLINDA), 25-g mouse
Description: 1.18 Radiation Dosimetry Calculation
as §1
The biodistribution data (available in the Tables 1 and 2, below) was used to determine the kinetics input values required by OLINDA. First, each of the values was decayed to its corresponding time point (the values on the table are shown at injection time). Then the different time-points of the uptake data (% ID/g) for each organ were fitted to both mono-exponential
functions using in-house software developed in Python. The best fit was selected based on maximizing the coefficient of determination (R2) of the fit and minimizing the residuals. The areas under the curves were analytically calculated based on the parameters obtained from the best fit of each organ and this provided the kinetic input values required by OLINDA.
In the mouse case, the adrenals, blood, fat, muscle, and seminal vesicles are not modeled in the phantom. These organs were grouped together and included in what OLINDA calls the remainder of the body.

[3] = system: mice bearing LNCaP tumor xenografts; test: SPECT/CT imaging of 177Lu-labeled compounds; assay type: in vivo; conditions: for size of LNCaP tumor xenografts over time: injection of about 37 MBq, SPECT/CT
Description: SPECT/CT imaging and biodistribution were performed using NOD-scid IL2Rgammanu^null (NSG) male mice, and the endoradiotherapy study was conducted using NOD.Cg-Rag1^tm1MomII2rg^tm1WjI/SzJ (NRG) male mice. The mice were maintained and the experiments were conducted in according to the guidelines established by the Canadian Council on Animal Care and approved by Animal Ethics Committee of the University of British Columbia. Mice were anesthetized by inhalation with 2% isoflurane in oxygen, and implanted subcutaneously with 1×10^7 LNCaP cells posterior to the left shoulder. Mice were used for studies when the tumor reached 5-8 mm in diameter 5-6 weeks after inoculation.
SPECT/CT imaging experiments were conducted using the MILabs (Utrecht, the Netherlands) U-SPECT-II/CT scanner. Each tumor-bearing mouse was injected with ≠37 MBq of ^177Lu-labeled PSMA-617 or HTK01169 through the tail vein under anesthesia (2% isoflurane in oxygen). The mice were allowed to recover and roam freely in their cage and imaged at 4, 24, 72 and 120 hours after injection. At each time point, the mice were sedated again and positioned in the scanner. A 5-min CT scan was conducted first for anatomical reference with a voltage setting at 60 kV and current at 615 μA followed by a 60-min static emission scan acquired in list mode using an ultra-high resolution multi-pinhole rat-mouse (1 mm pinhole size) collimator. Data were reconstructed using the U-SPECT II software with a 20% window width on three energy windows. The photopeak window was centered at 208 keV, with lower scatter and upper scatter windows centered at 170 and 255 keV, respectively. The images were reconstructed using the ordered subset expectation maximization algorithm (3 iterations, 16 subsets), and a 0.5 mm post-processing Gaussian filter. Images were decay corrected to injection time in PMOD (PMOD Technologies, Switzerland) then converted to DICOM for qualitative visualization in the Inveon Research Workplace software (Siemens Medical Solutions USA, Inc.).

[4] = source organ Adrenals, human male
[5] = source organ Cortical bone, human male
[6] = source organ Heart contents, human male
[7] = source organ Heart wall, human male
[8] = source organ Kidneys, human male
[9] = source organ Left colon, human male
[10] = source organ Pancreas, human male
[11] = source organ Rectum, human male
[12] = source organ Red marrow, human male
[13] = source organ Remainder of the body, human male
[14] = source organ Right colon, human
[15] = source organ Small Intestine, human
[16] = source organ Spleen, human male
[17] = source organ Stomach contents, human male
[18] = source organ Testes, human male
[19] = source organ Urinary bladder contents, human male
[20] = source organ Large intestine contents
[21] = source organ Remainder of the body
[22] = source organ Urinary bladder contents

Structure (SMILES)	Kinetics value [1, 4]	Kinetics value ([1]; source organ Brain, human male)	Kinetics value [1, 5]	Kinetics value [1, 6]	Kinetics value [1, 7]	Kinetics value [1, 8]	Kinetics value [1, 9]	Kinetics value ([1]; source organ Liver, human male)	Kinetics value ([1]; source organ Lungs, human male)	Kinetics value [1, 10]	Kinetics value [1, 11]	Kinetics value [1, 12]	Kinetics value [1, 13]	Kinetics value [1, 14]	Kinetics value [1, 15]	Kinetics value [1, 16]	Kinetics value [1, 17]	Kinetics value [1, 18]	Kinetics value [1, 19]	Kinetics value ([2]; source organ Brain)	other results
O=C([O-])CN1CCN(CC(=O)[O-])CCN(CC(=O)NCCCC[C@H](NC(=O)[C@H](CCC(=O)O)NC(=O)CCCc2ccc(I)cc2)C(=O)NC[C@H]2CC[C@H](C(=O)N[C@@H](Cc3ccc4ccccc4c3)C(=O)NCCCC[C@H](NC(=O)N[C@@H](CCC(=O)O)C(=O)O)C(=O)O)CC2)CCN(CC(=O)[O-])CC1.[177Lu+3] [^177Lu-HTK01169]	1.55E−02 MBq-h/MBq	3.42E−02 MBq-h/MBq	1.03E−02 MBq-h/MBq	3.16E−01 MBq-h/MBq	7.97E−02 MBq-h/MBq	6.81E+00 MBq-h/MBq	1.99E−02 MBq-h/MBq	4.98E−01 MBq-h/MBq	6.03E−01 MBq-h/MBq	2.05E−02 MBq-h/MBq	9.27E−03 MBq-h/MBq	2.46E−01 MBq-h/MBq	1.21E+01 MBq-h/MBq	1.99E−02 MBq-h/MBq	8.61E−02 MBq-h/MBq	2.03E−01 MBq-h/MBq	1.44E−02 MBq-h/MBq	1.25E−02 MBq-h/MBq	1.72E−01 MBq-h/MBq	3.21E−02 MBq-h/MBq	Kinetics value ([2]; source organ Cortical bone): 5.48E−01 MBq-h/MBq; Kinetics value ([2]; source organ Heart contents): 1.66E−01 MBq-h/MBq; Kinetics value ([2]; source organ Kidneys): 1.94E+01 MBq-h/MBq; Kinetics value [2, 20]: 2.25E−01 MBq-h/MBq; Kinetics value ([2]; source organ Liver): 1.41E+00 MBq-h/MBq; Kinetics value ([2]; source organ Lungs): 1.28E−01 MBq-h/MBq; Kinetics value ([2]; source organ Pancreas): 1.30E−01 MBq-h/MBq; Kinetics value [2, 21]: 1.73E+01 MBq-h/MBq; Kinetics value ([2]; source organ Small intestine): 6.73E−01 MBq-h/MBq; Kinetics value ([2]; source organ Spleen): 4.38E−01 MBq-h/MBq; Kinetics value ([2]; source organ Stomach contents): 1.54E−02 MBq-h/MBq; Kinetics value ([2]; source organ Testes): 1.66E−01 MBq-h/MBq; Kinetics value [2, 22]: 6.02E−01 MBq-h/MBq; excretion pathway ([3]; SPECT/CT images): excreted mainly via the renal pathway; tumor uptake (qualitative) ([3]; SPECT/CT images, compared with 177Lu-PSMA-617): Higher and sustained tumor uptake; renal retention (qualitative) ([3]; SPECT/CT images, early time points (4 and 24 h), compared with 177Lu-PSMA-617): higher renal retention; size of LNCaP tumor xenografts over time [3]: quick reduction in size
O=C([O-])CN1CCN(CC(=O)[O-])CCN(CC(=O)NCC2CCC(C(=O)N[C@@H](Cc3ccc4ccccc4c3)C(=O)NCCCC[C@H](NC(=O)N[C@@H](CCC(=O)O)C(=O)O)C(=O)O)CC2)CCN(CC(=O)[O-])CC1.[177Lu+3] (stereo partly drawn) [^177Lu-PSMA-617, reference compound]	1.00E−03 MBq-h/MBq	6.71E−03 MBq-h/MBq	5.30E−03 MBq-h/MBq	4.29E−03 MBq-h/MBq	2.02E−03 MBq-h/MBq	3.98E−01 MBq-h/MBq	1.53E−03 MBq-h/MBq	2.32E−02 MBq-h/MBq	2.41E−02 MBq-h/MBq	8.55E−04 MBq-h/MBq	7.16E−04 MBq-h/MBq	3.15E−03 MBq-h/MBq	5.39E−01 MBq-h/MBq	1.53E−03 MBq-h/MBq	6.65E−03 MBq-h/MBq	6.93E−03 MBq-h/MBq	5.06E−03 MBq-h/MBq	3.72E−04 MBq-h/MBq	3.15E−01 MBq-h/MBq	6.96E−03 MBq-h/MBq	Kinetics value ([2]; source organ Cortical bone): 9.96E−02 MBq-h/MBq; Kinetics value ([2]; source organ Heart contents): 4.21E−03 MBq-h/MBq; Kinetics value ([2]; source organ Kidneys): 1.13E+00 MBq-h/MBq; Kinetics value [2, 20]: 1.74E−02 MBq-h/MBq; Kinetics value ([2]; source organ Liver): 6.54E−02 MBq-h/MBq; Kinetics value ([2]; source organ Lungs): 5.10E−03 MBq-h/MBq; Kinetics value ([2]; source organ Pancreas): 5.44E−03 MBq-h/MBq; Kinetics value [2, 21]: 6.82E−01 MBq-h/MBq; Kinetics value ([2]; source organ Small intestine): 5.20E−02 MBq-h/MBq; Kinetics value ([2]; source organ Spleen): 1.50E−02 MBq-h/MBq; Kinetics value ([2]; source organ Stomach contents): 5.42E−03 MBq-h/MBq; Kinetics value ([2]; source organ Testes): 4.96E−03 MBq-h/MBq; Kinetics value [2, 22]: 1.10E+00 MBq-h/MBq; excretion pathway ([3]; SPECT/CT images): excreted mainly via the renal pathway; size of LNCaP tumor xenografts over time [3]: quick reduction in size

Source: patent US20200339625A1, “NOVEL RADIOMETAL-BINDING COMPOUNDS FOR DIAGNOSIS OR TREATMENT OF PROSTATE SPECIFIC MEMBRANE ANTIGEN-EXPRESSING CANCER” (PROVINCIAL HEALTH SERVICES AUTHORITY, priority 2017, published 2020)
